Laboratory results published in article PMC9898036, “VIP152 is a selective CDK9 inhibitor with pre-clinical in vitro and in vivo efficacy in chronic lymphocytic leukemia” (Leukemia, 2022).
Where two headings read alike, the source gives them in different places.

What was measured:
Test in all cases: DiscoverX KINOMEscan kinase profiling (468 assays)
Assay type in all cases: binding
human kinome [1] = molecular target: human kinome (Homo sapiens, UniProt Q9HAZ1); conditions: CLK4; 100 nM; read-out: Percent Control
Method in brief: (§1)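 DNA-tagged kinases competed for immobilized biotinylated ligands on streptavidin magnetic beads, with bound kinase quantified by qPCR. VIP152 in DMSO was tested against a DMSO control.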

human kinome [2] = molecular target: human kinome (Homo sapiens, UniProt Q15418); conditions: compound concentration 1000 nM, read-out: Percent Control
Method in brief: as §1

human kinome [3] = molecular target: human kinome (Homo sapiens, UniProt Q07002); conditions: read-out: Percent Control
Method in brief: as §1

human kinome [4] = molecular target: human kinome (Homo sapiens, UniProt Q96RR4); conditions: CAMKK2; 100 nM; read-out: Percent Control
Method in brief: as §1

human kinome [5] = molecular target: human kinome (Homo sapiens, UniProt O75747); conditions: read-out: Percent Control
Method in brief: as §1

human kinome [6] = molecular target: human kinome (Homo sapiens, UniProt O75116); conditions: kinase ROCK2 (Entrez ROCK2); compound concentration 1000 nM; read-out: Percent Control
Method in brief: as §1

human kinome [7] = molecular target: human kinome (Homo sapiens, UniProt Q9Y6R4); conditions: MAP3K4; 100 nM; read-out: Percent Control
Method in brief: as §1

human kinome [8] = molecular target: human kinome (Homo sapiens, UniProt P35916); conditions: FLT4; 100 nM; read-out: Percent Control
Method in brief: as §1

human kinome [9] = molecular target: human kinome (Homo sapiens, UniProt Q16816); conditions: read-out: Percent Control
Method in brief: as §1

human kinome [10] = molecular target: human kinome (Homo sapiens, UniProt P16234); conditions: read-out: Percent Control
Method in brief: as §1

human kinome [11] = molecular target: human kinome (Homo sapiens, UniProt Q96PY6); conditions: read-out: Percent Control
Method in brief: as §1

human kinome [12] = molecular target: human kinome (Homo sapiens, UniProt Q13705); conditions: ACVR2B; 100 nM; read-out: Percent Control
Method in brief: as §1

human kinome [13] = molecular target: human kinome (Homo sapiens, UniProt P28482); conditions: ERK2 (Entrez MAPK1); 100 nM; read-out: Percent Control
Method in brief: as §1

human kinome [14] = molecular target: human kinome (Homo sapiens, UniProt P36888, D835V); conditions: FLT3(D835V); 100 nM; read-out: Percent Control
Method in brief: as §1

human kinome [15] = molecular target: human kinome (Homo sapiens, UniProt O95747); conditions: read-out: Percent Control
Method in brief: as §1

human kinome [16] = molecular target: human kinome (Homo sapiens, UniProt Q9BQI3); conditions: EIF2AK1; 100 nM; read-out: Percent Control
Method in brief: as §1

human kinome [17] = molecular target: human kinome (Homo sapiens, UniProt Q06187); conditions: BTK; 100 nM; read-out: Percent Control
Method in brief: as §1

human kinome [18] = molecular target: human kinome (Homo sapiens, UniProt P06213); conditions: INSR; 100 nM; read-out: Percent Control
Method in brief: as §1

human kinome [19] = molecular target: human kinome (Homo sapiens, UniProt Q9H422); conditions: HIPK3; 100 nM; read-out: Percent Control
Method in brief: as §1

human kinome [20] = molecular target: human kinome (Homo sapiens, UniProt P42684); conditions: ABL2; 100 nM; read-out: Percent Control
Method in brief: as §1

human kinome [21] = molecular target: human kinome (Homo sapiens, UniProt P20794); conditions: MAK; 100 nM; read-out: Percent Control
Method in brief: as §1

human kinome [22] = molecular target: human kinome (Homo sapiens, UniProt Q59H18); conditions: kinase TNNI3K (Entrez TNNI3K); compound concentration 1000 nM; read-out: Percent Control
Method in brief: as §1

human kinome [23] = molecular target: human kinome (Homo sapiens, UniProt P08922); conditions: kinase ROS1 (Entrez ROS1); compound concentration 1000 nM; read-out: Percent Control
Method in brief: as §1

human kinome [24] = molecular target: human kinome (Homo sapiens, UniProt P00533, G719C); conditions: EGFR(G719C); 100 nM; read-out: Percent Control
Method in brief: as §1

human kinome [25] = molecular target: human kinome (Homo sapiens, UniProt Q08881); conditions: ITK; 100 nM; read-out: Percent Control
Method in brief: as §1

human kinome [26] = molecular target: human kinome (Homo sapiens, UniProt Q02750); conditions: MEK1 (Entrez MAP2K1); 100 nM; read-out: Percent Control
Method in brief: as §1

human kinome [27] = molecular target: human kinome (Homo sapiens, UniProt P07949, V804L); conditions: kinase RET(V804L) (Entrez RET); compound concentration 1000 nM; read-out: Percent Control
Method in brief: as §1

human kinome [28] = molecular target: human kinome (Homo sapiens, UniProt Q00532); conditions: CDKL1; 100 nM; read-out: Percent Control
Method in brief: as §1

human kinome [29] = molecular target: human kinome (Homo sapiens, UniProt O75385); conditions: kinase ULK1 (Entrez ULK1); compound concentration 1000 nM; read-out: Percent Control
Method in brief: as §1

human kinome [30] = molecular target: human kinome (Homo sapiens, UniProt P41240); conditions: CSK; 100 nM; read-out: Percent Control
Method in brief: as §1

Sequence of human kinome (Homo sapiens, UniProt Q07002) (Q07002 whole entry): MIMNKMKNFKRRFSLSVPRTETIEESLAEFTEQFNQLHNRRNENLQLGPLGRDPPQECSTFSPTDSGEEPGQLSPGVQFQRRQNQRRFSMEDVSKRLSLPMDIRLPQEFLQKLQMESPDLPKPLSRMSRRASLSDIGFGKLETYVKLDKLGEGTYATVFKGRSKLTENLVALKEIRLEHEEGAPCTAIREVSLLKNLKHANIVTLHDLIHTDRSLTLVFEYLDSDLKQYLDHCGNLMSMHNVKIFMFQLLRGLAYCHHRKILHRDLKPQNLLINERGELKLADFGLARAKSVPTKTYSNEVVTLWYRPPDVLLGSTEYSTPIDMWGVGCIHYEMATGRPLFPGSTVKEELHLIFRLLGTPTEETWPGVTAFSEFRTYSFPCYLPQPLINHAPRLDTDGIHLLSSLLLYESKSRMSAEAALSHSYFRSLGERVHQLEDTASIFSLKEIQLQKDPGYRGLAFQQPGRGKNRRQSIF
Sequence of human kinome (Homo sapiens, UniProt O95747) (O95747 whole entry): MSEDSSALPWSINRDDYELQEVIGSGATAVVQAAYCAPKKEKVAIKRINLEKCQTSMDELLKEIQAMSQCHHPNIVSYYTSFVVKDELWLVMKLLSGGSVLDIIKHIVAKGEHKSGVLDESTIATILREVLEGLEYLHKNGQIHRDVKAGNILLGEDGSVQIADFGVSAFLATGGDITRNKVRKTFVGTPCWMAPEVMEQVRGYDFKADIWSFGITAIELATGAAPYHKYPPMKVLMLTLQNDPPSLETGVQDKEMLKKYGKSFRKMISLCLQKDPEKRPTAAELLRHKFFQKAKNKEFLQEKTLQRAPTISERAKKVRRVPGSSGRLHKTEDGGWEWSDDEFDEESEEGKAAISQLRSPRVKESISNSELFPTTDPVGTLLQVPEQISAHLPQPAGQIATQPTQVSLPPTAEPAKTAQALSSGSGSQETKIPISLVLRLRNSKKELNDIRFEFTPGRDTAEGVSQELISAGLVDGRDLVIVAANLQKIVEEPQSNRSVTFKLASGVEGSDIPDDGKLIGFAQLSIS
Sequence of human kinome (Homo sapiens, UniProt Q15418) (Q15418 whole entry): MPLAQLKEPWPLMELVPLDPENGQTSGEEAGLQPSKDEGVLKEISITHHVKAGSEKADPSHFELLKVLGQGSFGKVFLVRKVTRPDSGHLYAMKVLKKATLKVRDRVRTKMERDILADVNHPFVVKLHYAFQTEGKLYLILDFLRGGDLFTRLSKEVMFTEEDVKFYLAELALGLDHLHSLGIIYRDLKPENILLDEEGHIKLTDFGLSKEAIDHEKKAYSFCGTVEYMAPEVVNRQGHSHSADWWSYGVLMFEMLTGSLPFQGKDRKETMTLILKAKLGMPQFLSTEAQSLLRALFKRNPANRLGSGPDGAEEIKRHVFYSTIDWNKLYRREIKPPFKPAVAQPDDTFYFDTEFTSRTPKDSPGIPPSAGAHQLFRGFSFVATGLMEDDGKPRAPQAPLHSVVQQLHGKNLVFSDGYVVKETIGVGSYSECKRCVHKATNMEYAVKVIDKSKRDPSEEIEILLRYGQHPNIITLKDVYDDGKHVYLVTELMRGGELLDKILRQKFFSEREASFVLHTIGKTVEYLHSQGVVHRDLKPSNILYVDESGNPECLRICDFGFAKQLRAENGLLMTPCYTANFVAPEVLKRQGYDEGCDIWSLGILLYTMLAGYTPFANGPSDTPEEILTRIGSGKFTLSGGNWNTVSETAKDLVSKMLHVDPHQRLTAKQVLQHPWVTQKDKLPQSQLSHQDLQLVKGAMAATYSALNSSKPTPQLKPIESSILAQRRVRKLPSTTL
Sequence of human kinome (Homo sapiens, UniProt P16234) (P16234 24-1089): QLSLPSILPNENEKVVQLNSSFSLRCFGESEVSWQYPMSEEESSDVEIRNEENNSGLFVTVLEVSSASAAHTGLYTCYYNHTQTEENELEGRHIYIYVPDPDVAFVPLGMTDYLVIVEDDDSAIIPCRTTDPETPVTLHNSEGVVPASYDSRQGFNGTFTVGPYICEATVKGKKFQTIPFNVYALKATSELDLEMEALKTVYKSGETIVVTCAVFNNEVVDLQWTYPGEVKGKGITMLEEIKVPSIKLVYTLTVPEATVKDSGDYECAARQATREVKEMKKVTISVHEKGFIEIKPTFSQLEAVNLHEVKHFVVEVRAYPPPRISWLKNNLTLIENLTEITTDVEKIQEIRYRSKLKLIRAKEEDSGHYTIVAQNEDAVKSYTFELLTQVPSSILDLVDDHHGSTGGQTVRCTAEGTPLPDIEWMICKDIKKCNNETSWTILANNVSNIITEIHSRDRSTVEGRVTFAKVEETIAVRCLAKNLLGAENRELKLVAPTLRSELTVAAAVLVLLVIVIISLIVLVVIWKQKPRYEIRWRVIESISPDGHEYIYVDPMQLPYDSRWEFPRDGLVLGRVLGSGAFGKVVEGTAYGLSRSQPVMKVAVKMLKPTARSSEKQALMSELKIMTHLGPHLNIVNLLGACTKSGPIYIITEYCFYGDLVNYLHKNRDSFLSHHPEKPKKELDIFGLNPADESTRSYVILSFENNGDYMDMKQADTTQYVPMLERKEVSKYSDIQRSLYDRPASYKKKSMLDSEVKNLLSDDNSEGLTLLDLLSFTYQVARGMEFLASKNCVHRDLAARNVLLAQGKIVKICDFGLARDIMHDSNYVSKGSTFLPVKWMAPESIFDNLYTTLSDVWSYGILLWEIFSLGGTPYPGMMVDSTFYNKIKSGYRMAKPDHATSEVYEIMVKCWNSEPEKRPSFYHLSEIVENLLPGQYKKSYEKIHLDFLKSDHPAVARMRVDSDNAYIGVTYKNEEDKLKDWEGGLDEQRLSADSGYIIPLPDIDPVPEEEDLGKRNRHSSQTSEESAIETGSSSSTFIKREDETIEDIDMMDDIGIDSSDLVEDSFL
Sequence of human kinome (Homo sapiens, UniProt Q96PY6) (Q96PY6 whole entry): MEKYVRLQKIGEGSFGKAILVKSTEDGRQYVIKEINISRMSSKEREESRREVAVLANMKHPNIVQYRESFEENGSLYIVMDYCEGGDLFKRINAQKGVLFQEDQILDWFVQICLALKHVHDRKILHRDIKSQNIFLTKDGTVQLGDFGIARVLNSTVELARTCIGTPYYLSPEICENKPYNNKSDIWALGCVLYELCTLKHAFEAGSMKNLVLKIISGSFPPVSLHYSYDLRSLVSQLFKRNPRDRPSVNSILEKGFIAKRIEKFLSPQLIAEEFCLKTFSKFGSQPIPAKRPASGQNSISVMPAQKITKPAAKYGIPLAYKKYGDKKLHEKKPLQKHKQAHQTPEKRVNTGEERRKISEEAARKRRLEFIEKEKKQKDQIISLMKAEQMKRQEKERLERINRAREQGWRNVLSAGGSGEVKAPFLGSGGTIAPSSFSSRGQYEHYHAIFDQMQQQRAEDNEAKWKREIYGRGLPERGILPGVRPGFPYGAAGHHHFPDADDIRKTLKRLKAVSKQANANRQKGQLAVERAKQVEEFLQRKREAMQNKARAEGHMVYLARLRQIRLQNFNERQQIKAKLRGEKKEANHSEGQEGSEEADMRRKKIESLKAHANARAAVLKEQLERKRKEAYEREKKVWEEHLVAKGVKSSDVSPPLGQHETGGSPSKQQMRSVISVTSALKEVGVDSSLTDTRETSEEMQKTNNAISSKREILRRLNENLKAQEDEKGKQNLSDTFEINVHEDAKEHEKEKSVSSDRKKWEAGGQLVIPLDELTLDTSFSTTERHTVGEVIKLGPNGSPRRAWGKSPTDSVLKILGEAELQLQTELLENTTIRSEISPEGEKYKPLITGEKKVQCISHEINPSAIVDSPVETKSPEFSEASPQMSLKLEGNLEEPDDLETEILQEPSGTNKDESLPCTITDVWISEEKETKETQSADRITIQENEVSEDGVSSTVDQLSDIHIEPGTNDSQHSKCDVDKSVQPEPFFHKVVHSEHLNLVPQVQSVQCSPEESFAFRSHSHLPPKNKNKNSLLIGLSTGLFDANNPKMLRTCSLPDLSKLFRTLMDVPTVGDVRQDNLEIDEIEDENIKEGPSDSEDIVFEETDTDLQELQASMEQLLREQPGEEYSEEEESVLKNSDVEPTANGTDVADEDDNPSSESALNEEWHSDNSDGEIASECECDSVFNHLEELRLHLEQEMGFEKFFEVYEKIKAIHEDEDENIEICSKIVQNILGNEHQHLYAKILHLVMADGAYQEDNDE
Sequence of human kinome (Homo sapiens, UniProt Q16816) (Q16816 whole entry): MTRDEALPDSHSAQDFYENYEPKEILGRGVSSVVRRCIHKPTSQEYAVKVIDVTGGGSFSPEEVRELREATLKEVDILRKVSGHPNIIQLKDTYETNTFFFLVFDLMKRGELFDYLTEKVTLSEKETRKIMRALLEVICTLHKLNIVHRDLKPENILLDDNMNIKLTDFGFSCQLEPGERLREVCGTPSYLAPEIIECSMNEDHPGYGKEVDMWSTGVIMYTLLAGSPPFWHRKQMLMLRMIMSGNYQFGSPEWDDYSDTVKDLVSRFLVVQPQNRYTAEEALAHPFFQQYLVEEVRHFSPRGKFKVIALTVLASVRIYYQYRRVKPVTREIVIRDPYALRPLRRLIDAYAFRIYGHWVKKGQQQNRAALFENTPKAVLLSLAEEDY
Sequence of human kinome (Homo sapiens, UniProt Q02750) (Q02750 whole entry): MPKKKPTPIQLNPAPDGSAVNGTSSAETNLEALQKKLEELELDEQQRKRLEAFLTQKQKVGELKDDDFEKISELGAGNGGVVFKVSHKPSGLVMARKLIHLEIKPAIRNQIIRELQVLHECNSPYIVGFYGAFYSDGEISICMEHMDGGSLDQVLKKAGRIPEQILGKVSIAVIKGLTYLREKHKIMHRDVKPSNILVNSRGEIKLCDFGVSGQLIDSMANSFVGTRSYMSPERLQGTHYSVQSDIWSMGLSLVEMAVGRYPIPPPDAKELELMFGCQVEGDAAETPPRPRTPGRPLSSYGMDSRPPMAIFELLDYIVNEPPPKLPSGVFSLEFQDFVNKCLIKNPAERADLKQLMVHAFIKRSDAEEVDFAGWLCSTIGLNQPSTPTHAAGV

Compound: COc1cc(F)ccc1-c1cc(Nc2cc(CS(C)(=N)=O)ccn2)ncc1F (stereo not shown) [VIP152]
- remaining binding at 0.1 µM (human kinome [1]): 100%
- remaining binding at 1 µM (human kinome [2]; kinase RSK1(Kin.Dom.1-N-terminal) (Entrez RPS6KA1)): 95%
- remaining binding at 1 µM (human kinome [2]; kinase RSK1(Kin.Dom.2-C-terminal) (Entrez RPS6KA1)): 89%
- remaining binding at 0.1 µM (human kinome [3]; PCTK3 (Entrez CDK18), 100 nM): 100%
- remaining binding at 1 µM (human kinome [3]; kinase PCTK3 (Entrez CDK18), compound concentration 1000 nM): 84%
- remaining binding at 0.1 µM (human kinome [4]): 92%
- remaining binding at 0.1 µM (human kinome [5]; PIK3C2G, 100 nM): 100%
- remaining binding at 1 µM (human kinome [5]; kinase PIK3C2G (Entrez PIK3C2G), compound concentration 1000 nM): 94%
- remaining binding at 1 µM (human kinome [6]): 87%
- remaining binding at 0.1 µM (human kinome [7]): 100%
- remaining binding at 0.1 µM (human kinome [8]): 100%
- remaining binding at 0.1 µM (human kinome [9]; PHKG1, 100 nM): 97%
- remaining binding at 1 µM (human kinome [9]; kinase PHKG1 (Entrez PHKG1), compound concentration 1000 nM): 96%
- remaining binding at 0.1 µM (human kinome [10]; PDGFRA, 100 nM): 100%
- remaining binding at 1 µM (human kinome [10]; kinase PDGFRA (Entrez PDGFRA), compound concentration 1000 nM): 80%
- remaining binding at 0.1 µM (human kinome [11]; NEK1, 100 nM): 100%
- remaining binding at 1 µM (human kinome [11]; kinase NEK1 (Entrez NEK1), compound concentration 1000 nM): 99%
- remaining binding at 0.1 µM (human kinome [12]): 89%
- remaining binding at 0.1 µM (human kinome [13]): 100%
- remaining binding at 0.1 µM (human kinome [14]): 100%
- remaining binding at 0.1 µM (human kinome [15]; OSR1 (Entrez OXSR1), 100 nM): 100%
- remaining binding at 1 µM (human kinome [15]; kinase OSR1 (Entrez OXSR1), compound concentration 1000 nM): 100%
- remaining binding at 0.1 µM (human kinome [16]): 100%
- remaining binding at 0.1 µM (human kinome [17]): 100%
- remaining binding at 0.1 µM (human kinome [18]): 100%
- remaining binding at 0.1 µM (human kinome [19]): 100%
- remaining binding at 0.1 µM (human kinome [20]): 100%
- remaining binding at 0.1 µM (human kinome [21]): 100%
- remaining binding at 1 µM (human kinome [22]): 27%
- remaining binding at 1 µM (human kinome [23]): 80%
- remaining binding at 0.1 µM (human kinome [24]): 100%
- remaining binding at 0.1 µM (human kinome [25]): 100%
- remaining binding at 0.1 µM (human kinome [26]): 100%
- remaining binding at 1 µM (human kinome [27]): 86%
- remaining binding at 0.1 µM (human kinome [28]): 69%
- remaining binding at 1 µM (human kinome [29]): 90%
- remaining binding at 0.1 µM (human kinome [30]): 100%
